Source: US5808144A, “Benzene derivatives” (Teijin Limited, priority 1995, dated 1998)

What was measured:
[1] = test system: human IgE antibody; experiment: Human IgE antibody production-inhibiting activity in vitro (lymphocytes + IL-4 + anti-CD40 Ab + IL-10, sandwich ELISA); format: cell-based; settings: Lymphocyte; for inhibition at 0.1 µM: 100 nM (0.1 μM), vs. no compound; for IC50: IgE antibody production
Protocol: (§1) Measurement of human IgE antibody production-inhibiting activity in vitro
(§2) In accordance with the following method established with reference to The Journal of Immunology (J. Immunol.), Vol. 146, 1836 to 1842 (1991) and the Journal of Immunology (J. Immunol.), Vol. 147, 8 to 13 (1991), the concentrations of IgE and […], when the compounds of the present invention shown in Table 12 were employed, were measured.
(§3) Peripheral venous blood gathered from a healthy person was subjected to a density-gradient centrifugation to isolate lymphocytes therefrom. The isolated lymphocytes were washed and suspended in a culture medium liquid (RPMI-1640 (made by Gibco Co.)+10% heat-inactivated FCS (made of Whittaker Co.)+100 μg/ml streptomycin+100 U/ml penicillin G+2 mM L-glutamine). The lymphocytes in the suspension were cultured for one week in the presence or non-presence of the above-mentioned compounds and in the presence of an interleukin 4 (IL-4, made by GENZYME CO.) (0.1 mg/ml), an anti-CD 40 antibodies (anti CD 40 Ab, made by BIOSOURCE CO., clone B-B20) (0.2 mg/ml), and an interleukin 10 (IL-10, made by GENZYME CO.) (0.2 mg/ml). To this culture system, the same culture medium liquid as mentioned above was supplemented, and then the culture was further carried out for one week. Thereafter, the concentrations of IgE antibodies and IgG antibodies in the supernatant of the culture mixture were measured by a sandwich ELISA method. In the measurement by the ELISA method, the concentration of the IgE antibodies was determined by using a primary antibody consisting of a rabbit anti-human IgE (ε) antibody (made by IGN Co.) and a secondary antibody consisting of biotin-anti-human IgE monoclonal antibody (G7-26, made by Phar Mingen Co.), and the concentration of IgG antibodies was determined by using a primary antibody consisting of anti-human IgG monoclonal antibody (G18-145, made by Phar Mingen Co.) and a secondary antibody consisting of biotin-donkey anti-human IgG antibody (H+L), made by Jackson Co.). Also, in the measurement of IgE and IgG antibody concentrations, as an enzyme, an Avidin-Biotin-HRP (Avidin-Biotin-Horse Radish Peroxidase; ABC kit, made by Vector Lab.) was used and as a substrate, TMB (3,3', 5,5'-tetramethylbenzidine) Microwell Peroxidase Substrate System (made by Kirkegaad & Perry Laboratories Inc.) was used.
(§4) On the basis of each antibody concentration when the compound of the present invention was not present, each antibody production-inhibition (%) in a concentration of the compound to be tested of 0.1 μM was calculated. Further, with respect to some of the compounds tested, the antibody production-inhibitions (%) of the tested compounds were measured in various concentrations thereof, and IC 50 values thereof were calculated. (Refer to Uejima et al., American Academy of Allergy & Immunology, Proceeding of 1995 Annual Meeting, Program No. 818).

[2] = test system: human IgG antibody; experiment: Human IgG antibody production-inhibiting activity in vitro (lymphocytes + IL-4 + anti-CD40 Ab + IL-10, sandwich ELISA); format: cell-based; settings: Lymphocyte; for inhibition at 0.1 µM: 100 nM (0.1 μM), vs. no compound; for IC50: IgG antibody production
Protocol: as §1, §2, §3, §4

[3] = test system: anti-TNP IgE; experiment: IgE antibody production-inhibiting performance on TNP-sensitive mice: serum anti-TNP IgE (ELISA); format: in vivo, mouse; settings: serum day 11, vehicle 433 ± 118
Protocol: (§5) Measurement of IgE antibody production-inhibiting performance on TNP-sensitive mice
(§6) TNP-KLH (2 μg/head) and Alum (1 mg/head) were dosed into the abdominal cavities of 8-week-old male mice to sensitize the mice.
(§7) Compound No. 14 was suspended in a concentration of 1.0 mg/ml, 3.0 mg/ml or […] in an aqueous 5% gum arabi solution, and each suspension was perorally dosed to three groups of mice for medication, to which each medicine was dosed at a dosage of 10 ml/kg, (namely, 10 mg/kg, 30 mg/kg or 100 mg/kg), once a day continuously for 10 days from the sensitized day. For a vehicle mouse group, the above-mentioned aqueous gum arali solution was dosed in the same amount as mentioned above in the same manner as mentioned above.
(§8) On the day after the final dosing day (the eleventh day), blood was extracted from the heart of the mouse, and a TNP specific antibody value of a blood serum obtained from the extracted blood was measured in accordance with ELISA method.

[4] = test system: anti-TNP IgG; experiment: TNP-sensitive mice: serum anti-TNP IgG (ELISA); format: in vivo, mouse; settings: serum day 11, vehicle 4390 ± 2630
Protocol: as §5, §6, §7, §8

[5] = test system: anti-TNP IgM; experiment: TNP-sensitive mice: serum anti-TNP IgM (ELISA); format: in vivo, mouse; settings: serum day 11, vehicle 110 ± 9
Protocol: as §5, §6, §7, §8

[6] = 10 mg/kg p.o. once a day for 10 days
[7] = 100 mg/kg p.o. once a day for 10 days, ** p < 0.01 vs. vehicle
[8] = 30 mg/kg p.o. once a day for 10 days

SMILES | inhibition at 0.1 µM [1] | IC50 [1] | inhibition at 0.1 µM [2] | IC50 [2] | also measured
O=C(Cc1ccc(Oc2ccc(OCc3ccccc3)cc2)cc1)Nc1ccccc1C(=O)O [Compound No. 4, 2-(4-(4-benzyloxyphenoxy)phenylacetamido)benzoic acid] | 100% | 28 nM | 100% | 200 nM | 
O=C(Cc1ccc(Oc2ccc(OC3CCCCC3)cc2)cc1)Nc1ccccc1C(=O)O [Compound No. 8, 2-(4-(4-cyclohexyloxyphenoxy)phenylacetamido)benzoic acid] | 95.5% | 17 nM | 40.6% | 50 nM | 
O=C(Cc1ccc(Oc2ccc(OC3CCCCCCC3)cc2)cc1)Nc1ccccc1C(=O)O [Compound No. 14, 2-(4-(4-cyclooctyloxyphenoxy)phenylacetamido)benzoic acid] | 100% | 6 nM | 93.8% | 12 nM | anti-TNP IgE [3, 6]: 127 ± 72 ng/mL; anti-TNP IgE ([3]; 30 mg/kg p.o. once a day for 10 days, ** p < 0.01 vs. vehicle): 52 ± 30 ng/mL; anti-TNP IgE [3, 7]: 0.2 ± 0.4 ng/mL; anti-TNP IgG [4, 6]: 2980 ± 2310 ng/mL; anti-TNP IgG [4, 8]: 2500 ± 1700 ng/mL; anti-TNP IgG [4, 7]: 16 ± 18 ng/mL; anti-TNP IgM [5, 6]: 79 ± 40 µg/mL; anti-TNP IgM (μg/ml) [5, 8]: 73 ± +26 μg/ml; anti-TNP IgM [5, 7]: 20 ± 5.0 µg/mL
O=C(Cc1ccc(Oc2ccc(OC3CCCC3)cc2)cc1)Nc1ccccc1C(=O)O [compound 12, 2-(4-(4-cyclopentyloxyphenoxy)phenylacetamido)benzoic acid] | 100% | 44 nM | 95.8% | > 100 nM | 
O=C(Cc1ccc(Oc2ccc(OC3CCCCCCCCCCC3)cc2)cc1)Nc1ccccc1C(=O)O [compound 16, 2-(4-(4-cyclododecanyloxyphenoxy)phenylacetamido)benzoic acid] | 100% | 22 nM | 95.8% | 46 nM | 
CC(C)Oc1ccc(Oc2ccc(CC(=O)Nc3ccccc3C(=O)O)cc2)cc1 [compound 18, 2-(4-(4-isopropyloxyphenoxy)phenylacetamido)benzoic acid] | 19.5% |  | -1.7% |  | 
CCC(CC)Oc1ccc(Oc2ccc(CC(=O)Nc3ccccc3C(=O)O)cc2)cc1 [compound 20, 2-(4-(4-(3-pentyloxy)phenoxy)phenylacetamido)benzoic acid] | 100% | 35 nM | 52.6% | > 100 nM | 
O=C(Nc1ccccc1C(=O)O)c1ccc(Oc2ccc(OC3CCCCCCC3)cc2)cc1 [compound 22, 2-(4-(4-cyclooctyloxyphenoxy)benzamido)benzoic acid] | 51% |  | -33.2% |  | 
O=C(Nc1ccccc1C(=O)O)c1ccc(Oc2ccc(O)cc2)cc1 [compound 30, 2-(4-(4-hydroxyphenoxy)benzamido)benzoic acid] | 25.7% |  | -31.7% |  | 
